Reference: ChEMBL document CHEMBL4765280, “Carvedilol serves as a novel CYP1B1 inhibitor, a systematic drug repurposing approach through structure-based virtual screening and experimental verification” (Eur J Med Chem, 2020)

Key:
Cytochrome P450 1B1 [1] = target: T1, Cytochrome P450 1B1 (Homo sapiens, UniProt Q16678); assay: Inhibition of human CYP1B1 at 5 uM using 7-ethyl-O-resorufin as substrate incubated for 30 mins in presence of NADPH by EROD assay; details: 0.5 h
T1 sequence (Q16678 whole entry): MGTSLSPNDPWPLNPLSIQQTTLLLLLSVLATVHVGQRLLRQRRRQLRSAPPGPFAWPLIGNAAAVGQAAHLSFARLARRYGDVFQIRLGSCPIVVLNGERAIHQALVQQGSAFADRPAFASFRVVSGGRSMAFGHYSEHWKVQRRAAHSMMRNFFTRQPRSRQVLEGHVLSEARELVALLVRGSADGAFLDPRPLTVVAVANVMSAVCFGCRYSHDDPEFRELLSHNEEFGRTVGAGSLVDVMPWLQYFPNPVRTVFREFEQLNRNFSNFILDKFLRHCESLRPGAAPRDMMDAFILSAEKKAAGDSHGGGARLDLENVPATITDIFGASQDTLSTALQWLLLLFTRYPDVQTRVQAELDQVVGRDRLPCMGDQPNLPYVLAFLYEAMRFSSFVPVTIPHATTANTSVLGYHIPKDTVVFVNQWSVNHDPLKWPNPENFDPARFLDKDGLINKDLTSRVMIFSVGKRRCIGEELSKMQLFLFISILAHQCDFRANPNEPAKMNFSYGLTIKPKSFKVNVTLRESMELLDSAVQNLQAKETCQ

Cytochrome P450 1B1 [2] = target: T1, Cytochrome P450 1B1; assay: Inhibition of human CYP1B1 using 7-ethyl-O-resorufin as substrate incubated for 30 mins in presence of NADPH by EROD assay
A549 = assay: Cytotoxicity against human A549 cells assessed as reduction in cell viability after 72 hrs by MTT assay; type: functional, cell-based; details: dose 5-10 µM
A549/Taxol = assay: Cytotoxicity against human A549/Taxol cells assessed as reduction in cell viability after 72 hrs by MTT assay; type: functional, cell-based; details: dose 5-10 µM

SMILES	inhibition (INH) (Cytochrome P450 1B1 [1])	IC50 (Cytochrome P450 1B1 [2])	Activity (A549)	Activity (A549/Taxol)
CCc1cc2c(cc1CC)CC(NC[C@H](O)c1ccc(O)c3[nH]c(=O)ccc13)C2 [INDACATEROL]	Active	59.2 µM		
CCN(CCO)CCCC(C)Nc1ccnc2cc(Cl)ccc12.O=S(=O)(O)O (stereo not given) [HYDROXYCHLOROQUINE SULFATE]	Not Active			
C#C[C@]1(O)CC[C@H]2[C@@H]3CCc4cc(O)ccc4[C@H]3CC[C@@]21C [ETHINYL ESTRADIOL]	Not Active			

Further lines, with some results ahead:

inhibition (INH) (Cytochrome P450 1B1 [1])	IC50 (Cytochrome P450 1B1 [2])	SMILES	Activity (A549)	Activity (A549/Taxol)
Not Active		C=C[C@H]1C[N@@]2CC[C@H]1C[C@@H]2[C@@H](O)c1ccnc2ccc(OC)cc12 [QUINIDINE]		
Active	1.1 µM	COc1ccccc1OCCNCC(O)COc1cccc2[nH]c3ccccc3c12 (stereo not given) [CARVEDILOL]	Dose-dependent effect	Dose-dependent effect
Not Active		CC(CCc1ccccc1)NCC(O)c1ccc(O)c(C(N)=O)c1 (stereo not given) [LABETALOL]		
